From ChEMBL document CHEMBL1134446, “Polyamine analogue antidiarrheals: a structure-activity study” (J Med Chem, 2001) come the findings set out here.

In data set [1] the test system is Canis familiaris. Put plainly: Spermine Distribution in kidney was determined after DESPM dosing of 8.0 mg/kg/day for 4.5 days in dog(cu dose-52.4) and sacrificed at 10 days PLD(cu dose-36 mg/kg). It is filed as ADME, organism-based, Canis lupus familiaris. To be noted: in vivo, 240 h.
Data set [2] deals with Canis familiaris. Put plainly: Spermine Distribution in liver was determined after DESPM dosing of 1.87 mg/kg/day for 28 days in dog(cu dose-52.4) and sacrificed at 75 days PLD(cu dose-52.4 mg/kg). The conditions noted are these: in vivo, 1800 h. It is filed as ADME, organism-based, Canis lupus familiaris.
Data set [3] deals with Canis familiaris. In words: Spermidine Distribution in liver was determined after DESPM dosing of 1.87 mg/kg/day for 28 days in dog(cu dose-52.4) and sacrificed at 75 days PLD(cu dose-52.4 mg/kg). The format is ADME, organism-based, Canis lupus familiaris. The conditions noted are these: in vivo, 1800 h.
The test system of data set [4] is Canis familiaris. Put plainly: putrescine Distribution in liver was determined after DESPM dosing of 4 mg/kg/day for 13 days in dog(cu dose-52.4) and sacrificed at 10 days PLD(cu dose-52 mg/kg). It is filed as ADME, organism-based, Canis lupus familiaris. The conditions noted are these: in vivo, 240 h.
Data set [5] deals with Canis familiaris. Put plainly: Spermidine Distribution in kidney was determined after DESPM dosing of 4 mg/kg/day for 13 days in dog(cu dose-52.4) and sacrificed at 75 days PLD(cu dose-52 mg/kg). The conditions noted are these: in vivo, 1800 h. The format is ADME, organism-based, Canis lupus familiaris.
The test system of data set [6] is Canis familiaris. Put plainly: Spermidine Distribution in kidney was determined after DESPM dosing of 6.0 mg/kg/day for 4.5 days in dog(cu dose-52.4) and sacrificed at 10 days PLD(cu dose-27 mg/kg). It is filed as ADME, organism-based, Canis lupus familiaris. To be noted: in vivo, 240 h.
Data set [7] has as its system Canis familiaris. In words: Spermine Distribution in liver was determined after DESPM dosing of 6.0 mg/kg/day for 4.5 days in dog(cu dose-52.4) and sacrificed at 75 days PLD(cu dose-27 mg/kg). It is filed as ADME, organism-based, Canis lupus familiaris. To be noted: in vivo, 1800 h.
Data set [8] has as its system Canis familiaris. Put plainly: MESPM/MEHSPH Distribution in liver was determined after DESPM dosing of 8.0 mg/kg/day for 4.5 days in dog(cu dose-52.4) and sacrificed at 75 days PLD(cu dose-36 mg/kg). The format is ADME, organism-based, Canis lupus familiaris. The conditions noted are these: in vivo, 1800 h.
For data set [9], the system named is Canis familiaris. Put plainly: Spermidine Distribution in liver was determined after DESPM dosing of 4 mg/kg/day for 13 days in dog(cu dose-52.4) and sacrificed at 10 days PLD(cu dose-52 mg/kg). The format is ADME, organism-based, Canis lupus familiaris. The conditions noted are these: in vivo, 240 h.
In data set [10] the test system is Canis familiaris. Put plainly: Spermidine Distribution in liver was determined after DESPM dosing of 6.0 mg/kg/day for 4.5 days in dog(cu dose-52.4) and sacrificed at 10 days PLD(cu dose-27 mg/kg). The format is ADME, organism-based, Canis lupus familiaris. To be noted: in vivo, 240 h.
Data set [11] has as its system Canis familiaris. Put plainly: Spermidine Distribution in liver was determined after DESPM dosing of 6.0 mg/kg/day for 4.5 days in dog(cu dose-52.4) and sacrificed at 75 days PLD(cu dose-27 mg/kg). To be noted: in vivo, 1800 h. The format is ADME, organism-based, Canis lupus familiaris.
The test system of data set [12] is Canis familiaris. In words: Spermine Distribution in kidney was determined after DESPM dosing of 1.87 mg/kg/day for 28 days in dog(cu dose-52.4) and sacrificed at 75 days PLD(cu dose-52.4 mg/kg). It is filed as ADME, organism-based, Canis lupus familiaris. The conditions noted are these: in vivo, 1800 h.
Data set [13] deals with Canis familiaris. In words: Spermidine Distribution in kidney was determined after DESPM dosing of 8.0 mg/kg/day for 4.5 days in dog(cu dose-52.4) and sacrificed at 10 days PLD(cu dose-36 mg/kg). It is filed as ADME, organism-based, Canis lupus familiaris. To be noted: in vivo, 240 h.
Data set [14] concerns Canis familiaris. Put plainly: MESPM/MEHSPH Distribution in kidney was determined after DESPM dosing of 1.87 mg/kg/day for 28 days in dog(cu dose-52.4) and sacrificed at 75 days PLD(cu dose-52.4 mg/kg). It is filed as ADME, organism-based, Canis lupus familiaris. The conditions noted are these: in vivo, 1800 h.
The subject of data set [15] is Canis familiaris. In words: MESPM/MEHSPH Distribution in liver was determined after DESPM dosing of 4 mg/kg/day for 13 days in dog(cu dose-52.4) and sacrificed at 75 days PLD(cu dose-52 mg/kg). The format is ADME, organism-based, Canis lupus familiaris. The conditions noted are these: in vivo, 1800 h.
For data set [16], the system named is Rattus norvegicus. Put plainly: Weight loss of rat over the 6-h experimental period when a dose of 14.3 mg/kg (35.4 administered. The format is functional.
Data set [17] concerns Rattus norvegicus. Put plainly: Percent reduction was determined by using the ratio of mean of treated animal to that of control animal at a dose of 23.5 mg/kg. It is filed as functional.
For data set [18], the system named is Rattus norvegicus. Put plainly: Percent reduction was determined by using the ratio of mean of treated animal to that of control animal at a dose of 4.7 mg/kg. It is filed as functional.
The subject of data set [19] is Canis familiaris. In words: Spermine Distribution in liver was determined after DEHSPM dosing of 2.0 mg/kg/day for 29 days in dog(cu dose-52.4) and sacrificed at 10 days PLD(cu dose-22 mg/kg). The format is ADME, organism-based, Canis lupus familiaris. To be noted: in vivo, 240 h.
For data set [20], the system named is Canis familiaris. In words: putrescine putrescine Distribution in kidney was determined after DEHSPM dosing of 2.0 mg/kg/day for 29 days in dog(cu dose-52.4) and sacrificed at 10 days PLD(cu dose-58 mg/kg). The format is ADME, organism-based, Canis lupus familiaris. The conditions noted are these: in vivo, 240 h.
For data set [21], the system named is Canis familiaris. Put plainly: Spermidine Distribution in kidney was determined after DEHSPM dosing of 2.0 mg/kg/day for 29 days in dog(cu dose-52.4) and sacrificed at 10 days PLD(cu dose-58 mg/kg). It is filed as ADME, organism-based, Canis lupus familiaris. To be noted: in vivo, 240 h.
Data set [22] deals with Canis familiaris. In words: Distribution in kidney was determined after DESPM dosing of 8.0 mg/kg/day for 4.5 days in dog(cu dose-52.4) and sacrificed at 10 days PLD(cu dose-36 mg/kg). It is filed as ADME, organism-based, Canis lupus familiaris. To be noted: in vivo, 240 h.
Data set [23] relates to Canis familiaris. Put plainly: Distribution in kidney was determined after DESPM dosing of 8.0 mg/kg/day for 4.5 days in dog(cu dose-52.4) and sacrificed at 75 days PLD(cu dose-36 mg/kg). It is filed as ADME, organism-based, Canis lupus familiaris. The conditions noted are these: in vivo, 1800 h.
Data set [24] deals with Canis familiaris. Put plainly: Distribution in liver was determined after DESPM dosing of 1.87 mg/kg/day for 28 days in dog(cu dose-52.4) and sacrificed at 75 days PLD(cu dose-52.4 mg/kg). The format is ADME, organism-based, Canis lupus familiaris. To be noted: in vivo, 1800 h.
Data set [25] relates to Canis familiaris. In words: Distribution in liver was determined after DESPM dosing of 4 mg/kg/day for 13 days in dog(cu dose-52.4) and sacrificed at 10 days PLD(cu dose-52 mg/kg). It is filed as ADME, organism-based, Canis lupus familiaris. To be noted: in vivo, 240 h.
The subject of data set [26] is Canis familiaris. In words: Distribution in liver was determined after DESPM dosing of 6.0 mg/kg/day for 4.5 days in dog(cu dose-52.4) and sacrificed at 10 days PLD(cu dose-27 mg/kg). The format is ADME, organism-based, Canis lupus familiaris. To be noted: in vivo, 240 h.
For data set [27], the system named is Canis familiaris. Put plainly: Distribution in liver was determined after DESPM dosing of 8.0 mg/kg/day for 4.5 days in dog(cu dose-52.4) and sacrificed at 75 days PLD(cu dose-36 mg/kg). It is filed as ADME, organism-based, Canis lupus familiaris. To be noted: in vivo, 1800 h.
The subject of data set [28] is Canis familiaris. In words: HSPM Distribution in kidney was determined after DEHSPM dosing of 2.0 mg/kg/day for 29 days in dog(cu dose-52.4) and sacrificed at 10 days PLD(cu dose-58 mg/kg). It is filed as ADME, organism-based, Canis lupus familiaris. To be noted: in vivo, 240 h.
Data set [29] concerns Canis familiaris. In words: HSPM Distribution in liver was determined after DEHSPM dosing of 2.0 mg/kg/day for 29 days in dog(cu dose-52.4) and sacrificed at 10 days PLD(cu dose-22 mg/kg). To be noted: in vivo, 240 h. It is filed as ADME, organism-based, Canis lupus familiaris.
Data set [30] relates to Canis familiaris. In words: Distribution in kidney was determined after DESPM dosing of 1.87 mg/kg/day for 28 days in dog(cu dose-52.4) and sacrificed at 10 days PLD(cu dose-52.4 mg/kg). The format is ADME, organism-based, Canis lupus familiaris. To be noted: in vivo, 240 h.
In data set [31] the test system is Canis familiaris. In words: Distribution in kidney was determined after DESPM dosing of 4 mg/kg/day for 13 days in dog(cu dose-52.4) and sacrificed at 10 days PLD(cu dose-52 mg/kg). The format is ADME, organism-based, Canis lupus familiaris. The conditions noted are these: in vivo, 240 h.
Data set [32] has as its system Canis familiaris. Put plainly: Distribution in kidney was determined after DESPM dosing of 6.0 mg/kg/day for 4.5 days in dog(cu dose-52.4) and sacrificed at 75 days PLD(cu dose-27 mg/kg). It is filed as ADME, organism-based, Canis lupus familiaris. The conditions noted are these: in vivo, 1800 h.

Several values for one entry are separate records, joined by “and”; a condition that tells them apart may be missing. Equal values may be shown once.

Turning to `CCNCCCNCCCCNCCCNCC` [BIS(ETHYL)SPERMINE], the “Wet weight of tissue” value in data set [1] was determined as 784 nM/g; in data set [2], 649 nM/g; in [3], 198 nM/g; in [4], 82 nM/g; in [5], 117 nM/g; in data set [6] it was 60 nM/g. Further, the “Wet weight of tissue” value in [7] is 992 nM/g; in data set [8] it was 0 nM/g; in [9], 176 nM/g; in data set [10] it was 181 nM/g; in data set [11], 244 nM/g; in data set [12] it was 540 nM/g. Also, the “Wet weight of tissue” value was found to be 66 nM/g in data set [13], 0 nM/g in [14] and 0 nM/g in data set [15]. The compound further came in with a Weight loss in data set [16] below 4.4 g. In addition, the Reduction in [17] is 59% and 74%; in data set [18], 37% and 60%.

Take `CCNCCCCNCCCCNCCCCNCC` [DIETHYLHOMOSPERMINE]: the “Wet weight of tissue” value in data set [19] came to 386 nM/g; in [20] it was 5 nM/g; in [21], 41 nM/g; in data set [22], 48 nM/g; in data set [23], 0 nM/g; in data set [24] it was 0 nM/g. Further, the “Wet weight of tissue” value in data set [25] is 36 nM/g; in [26], 30 nM/g; in [27], 0 nM/g; in data set [28], 269 nM/g; in [29] it was 668 nM/g; in [30] it was 50 nM/g. The “Wet weight of tissue” value stood at 46 nM/g in data set [31] and 0 nM/g in [32].
